From ChEMBL document CHEMBL3352455, “Small molecule disruptors of the glucokinase-glucokinase regulatory protein interaction: 4. Exploration of a novel binding pocket” (J Med Chem, 2014)
pIC50: −log10 of the molar value.

What was measured:
[1] = Intrinsic clearance in human liver microsomes at 1 uM after 30 mins in presence of NADPH; assay type: ADME; settings: read-out: CLH
[2] = molecular target: T1, Hexokinase-4 (Homo sapiens, UniProt P35557); experiment: Inhibition of fluorescein-labeled human GK interaction with biotin-labeled human GKRP compound incubated for 20 mins prior to addition of fluorescein-labeled GK measured after 2 to 4 hrs by AlphaScreen assay
T1 sequence (P35557 whole entry): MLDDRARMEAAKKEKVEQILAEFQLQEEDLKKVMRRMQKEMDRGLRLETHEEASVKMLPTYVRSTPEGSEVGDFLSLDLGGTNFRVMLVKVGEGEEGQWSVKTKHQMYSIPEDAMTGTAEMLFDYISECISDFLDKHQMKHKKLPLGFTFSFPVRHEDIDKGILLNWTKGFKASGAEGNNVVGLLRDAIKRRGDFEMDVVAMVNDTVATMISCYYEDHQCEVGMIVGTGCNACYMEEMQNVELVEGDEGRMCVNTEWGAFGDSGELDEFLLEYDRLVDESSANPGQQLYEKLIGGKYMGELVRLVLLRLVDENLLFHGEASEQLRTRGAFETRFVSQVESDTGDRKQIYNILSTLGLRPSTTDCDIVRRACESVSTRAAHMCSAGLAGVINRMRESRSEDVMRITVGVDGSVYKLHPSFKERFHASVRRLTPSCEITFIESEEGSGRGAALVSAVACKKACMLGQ

[3] = Intrinsic clearance in rat liver microsomes at 1 uM after 30 mins in presence of NADPH; assay type: ADME; settings: read-out: CLH

| microsomal CLint at 1 µM [1] | pIC50 [2] | microsomal CLint at 1 µM [3] | Compound |
| --- | --- | --- | --- |
| < 14 µL/min/mg | 6.75 | < 14 µL/min/mg | Nc1ccc(S(=O)(=O)N2CCN(c3ccc(C(O)(C(F)(F)F)C(F)(F)F)cn3)CC2)cn1 |
| < 14 µL/min/mg | 6.70 | 26 µL/min/mg | Nc1ccc(S(=O)(=O)N2CCN(c3ncc(C(O)(C(F)(F)F)C(F)(F)F)cc3Cl)CC2)cn1 |
| < 14 µL/min/mg | 6.95 | 32 µL/min/mg | Nc1ccc(S(=O)(=O)N2CCN(c3ncc(C(O)(C(F)(F)F)C(F)(F)F)cc3Br)CC2)cn1 |
| < 14 µL/min/mg | 5.95 | < 14 µL/min/mg | COc1cc(C(O)(C(F)(F)F)C(F)(F)F)cnc1N1CCN(S(=O)(=O)c2ccc(N)nc2)CC1 |
| 38 µL/min/mg | 6.22 | 27 µL/min/mg | Nc1ccc(S(=O)(=O)N2CCN(c3ncc(C(O)(C(F)(F)F)C(F)(F)F)cc3C3CC3)CC2)cn1 |
| < 14 µL/min/mg | 7.48 | 67 µL/min/mg | Nc1ccc(S(=O)(=O)N2CCN(c3ncc(C(O)(C(F)(F)F)C(F)(F)F)cc3C#CC3CC3)CC2)cn1 |
| < 14 µL/min/mg | 7.85 | 65 µL/min/mg | Nc1ccc(S(=O)(=O)N2CCN(c3ncc(C(O)(C(F)(F)F)C(F)(F)F)cc3C#CCO)CC2)cn1 |
| 15 µL/min/mg | 8.30 | 399 µL/min/mg | COCC#Cc1cc(C(O)(C(F)(F)F)C(F)(F)F)cnc1N1CCN(S(=O)(=O)c2ccc(N)nc2)CC1 |
| < 14 µL/min/mg | 7.31 | 16 µL/min/mg | CC(C)(O)C#Cc1cc(C(O)(C(F)(F)F)C(F)(F)F)cnc1N1CCN(S(=O)(=O)c2ccc(N)nc2)CC1 |
| < 14 µL/min/mg | 7.77 | 68 µL/min/mg | Nc1ccc(S(=O)(=O)N2CCN(c3ncc(C(O)(C(F)(F)F)C(F)(F)F)cc3C#CCCO)CC2)cn1 |
| < 14 µL/min/mg | 6.70 | 20 µL/min/mg | Nc1ccc(S(=O)(=O)N2CCN(c3ncc(C(O)(C(F)(F)F)C(F)(F)F)cc3-c3cc[nH]n3)CC2)cn1 |
| 20 µL/min/mg | 8.30 | 194 µL/min/mg | CCn1cc(-c2cc(C(O)(C(F)(F)F)C(F)(F)F)cnc2N2CCN(S(=O)(=O)c3ccc(N)nc3)CC2)cn1 |
| 38 µL/min/mg | 7.64 | 198 µL/min/mg | CC(C)n1cc(-c2cc(C(O)(C(F)(F)F)C(F)(F)F)cnc2N2CCN(S(=O)(=O)c3ccc(N)nc3)CC2)cn1 |
| 28 µL/min/mg | 7.40 | 88 µL/min/mg | Cc1c(-c2cc(C(O)(C(F)(F)F)C(F)(F)F)cnc2N2CCN(S(=O)(=O)c3ccc(N)nc3)CC2)cnn1C |
| < 14 µL/min/mg | 7.72 | 57 µL/min/mg | Nc1ccc(S(=O)(=O)N2CCN(c3ncc(C(O)(C(F)(F)F)C(F)(F)F)cc3-c3ccoc3)CC2)cn1 |
| 29 µL/min/mg | 8.30 | 399 µL/min/mg | Cc1csc(-c2cc(C(O)(C(F)(F)F)C(F)(F)F)cnc2N2CCN(S(=O)(=O)c3ccc(N)nc3)CC2)c1 |
| < 14 µL/min/mg | 8.15 | 49 µL/min/mg | Nc1ccc(S(=O)(=O)N2CCN(c3ncc(C(O)(C(F)(F)F)C(F)(F)F)cc3-c3ccccc3)CC2)cn1 |
| 22 µL/min/mg | 8.22 | 125 µL/min/mg | Nc1ccc(S(=O)(=O)N2CCN(c3ncc(C(O)(C(F)(F)F)C(F)(F)F)cc3-c3ccccc3O)CC2)cn1 |
| 15 µL/min/mg | 7.68 | 31 µL/min/mg | Nc1ccc(S(=O)(=O)N2CCN(c3ncc(C(O)(C(F)(F)F)C(F)(F)F)cc3-c3ccncc3)CC2)cn1 |
| 17 µL/min/mg | 7.62 | 22 µL/min/mg | Nc1ccc(S(=O)(=O)N2CCN(c3ncc(C(O)(C(F)(F)F)C(F)(F)F)cc3-c3cnccc3F)CC2)cn1 |
| 24 µL/min/mg | 7.96 | 19 µL/min/mg | Nc1ccc(S(=O)(=O)N2CCN(c3ncc(C(O)(C(F)(F)F)C(F)(F)F)cc3-c3cncc(F)c3)CC2)cn1 |
| 37 µL/min/mg | 7.54 | 259 µL/min/mg | Cc1cncc(-c2cc(C(O)(C(F)(F)F)C(F)(F)F)cnc2N2CCN(S(=O)(=O)c3ccc(N)nc3)CC2)c1 |
| 43 µL/min/mg | 7.40 | 182 µL/min/mg | Cc1ccc(-c2cc(C(O)(C(F)(F)F)C(F)(F)F)cnc2N2CCN(S(=O)(=O)c3ccc(N)nc3)CC2)cn1 |
| 25 µL/min/mg | 7.80 | 265 µL/min/mg | COc1ccc(-c2cc(C(O)(C(F)(F)F)C(F)(F)F)cnc2N2CCN(S(=O)(=O)c3ccc(N)nc3)CC2)cn1 |
| 44 µL/min/mg | 7.77 | 58 µL/min/mg | COc1cncc(-c2cc(C(O)(C(F)(F)F)C(F)(F)F)cnc2N2CCN(S(=O)(=O)c3ccc(N)nc3)CC2)c1 |

The remaining lines, values behind:

| Compound | microsomal CLint at 1 µM [1] | pIC50 [2] | microsomal CLint at 1 µM [3] |
| --- | --- | --- | --- |
| Nc1ccc(S(=O)(=O)N2CCN(c3ncc(C(O)(C(F)(F)F)C(F)(F)F)cc3-c3ccc(F)cc3)CC2)cn1 | < 14 µL/min/mg | 7.96 | 40 µL/min/mg |
| CC(C)(C)n1cc(-c2cc(C(O)(C(F)(F)F)C(F)(F)F)cnc2N2CCN(S(=O)(=O)c3ccc(N)nc3)CC2)cn1 | 86 µL/min/mg | 7.06 | 459 µL/min/mg |
| Cn1cc(-c2cc(C(O)(C(F)(F)F)C(F)(F)F)cnc2N2CCN(S(=O)(=O)c3ccc(N)nc3)CC2)c(C(F)(F)F)n1 | 50 µL/min/mg | 4.52 | 121 µL/min/mg |
| Nc1ccc(S(=O)(=O)N2CCN(c3ncc(C(O)(C(F)(F)F)C(F)(F)F)cc3-c3ccccc3F)CC2)cn1 | < 14 µL/min/mg | 8.15 | 47 µL/min/mg |
| Nc1ccc(S(=O)(=O)N2CCN(c3ncc(C(O)(C(F)(F)F)C(F)(F)F)cc3-c3cccc(F)c3)CC2)cn1 | 25 µL/min/mg | 8.10 | 52 µL/min/mg |
| CS(=O)(=O)Nc1cccc(-c2cc(C(O)(C(F)(F)F)C(F)(F)F)cnc2N2CCN(S(=O)(=O)c3ccc(N)nc3)CC2)c1 | 40 µL/min/mg | 6.51 | 81 µL/min/mg |
| NC(=O)c1cccc(-c2cc(C(O)(C(F)(F)F)C(F)(F)F)cnc2N2CCN(S(=O)(=O)c3ccc(N)nc3)CC2)c1 | 17 µL/min/mg | 7.30 | 63 µL/min/mg |
| CS(=O)(=O)c1ccc(-c2cc(C(O)(C(F)(F)F)C(F)(F)F)cnc2N2CCN(S(=O)(=O)c3ccc(N)nc3)CC2)cc1 | 32 µL/min/mg | 7.38 | 103 µL/min/mg |
| Nc1ccc(S(=O)(=O)N2CCN(c3ncc(C(O)(C(F)(F)F)C(F)(F)F)cc3-c3ccc4sccc4c3)CC2)cn1 | 48 µL/min/mg | 7.33 | 487 µL/min/mg |
| Nc1ccc(S(=O)(=O)N2CCN(c3ncc(C(O)(C(F)(F)F)C(F)(F)F)cc3-c3ccc4scnc4c3)CC2)cn1 | 39 µL/min/mg | 7.46 | 147 µL/min/mg |
| Nc1ccc(S(=O)(=O)N2CCN(c3ncc(C(O)(C(F)(F)F)C(F)(F)F)cc3-c3ccc4ocnc4c3)CC2)cn1 | < 14 µL/min/mg | 7.70 | 120 µL/min/mg |
| Cc1nc2cc(-c3cc(C(O)(C(F)(F)F)C(F)(F)F)cnc3N3CCN(S(=O)(=O)c4ccc(N)nc4)CC3)ccc2o1 | < 14 µL/min/mg | 7.82 | 99 µL/min/mg |
| CN1C(=O)Cc2cc(-c3cc(C(O)(C(F)(F)F)C(F)(F)F)cnc3N3CCN(S(=O)(=O)c4ccc(N)nc4)CC3)ccc21 | 15 µL/min/mg | 7.70 | 221 µL/min/mg |
| Nc1ccc(S(=O)(=O)N2CCN(c3ncc(C(O)(C(F)(F)F)C(F)(F)F)cc3-c3ccc4c(c3)CC(=O)N4)CC2)cn1 | < 14 µL/min/mg | 7.48 | 119 µL/min/mg |
| Nc1ccc(S(=O)(=O)N2CCN(c3ncc(C(O)(C(F)(F)F)C(F)(F)F)cc3-c3ccc4[nH]ncc4c3)CC2)cn1 | 27 µL/min/mg | 7.22 | 88 µL/min/mg |
| Nc1ccc(S(=O)(=O)N2CCN(c3ncc(C(O)(C(F)(F)F)C(F)(F)F)cc3-c3cccc4[nH]ncc34)CC2)cn1 | 42 µL/min/mg | 5.71 | 93 µL/min/mg |
| Nc1ccc(S(=O)(=O)N2CCN(c3ncc(C(O)(C(F)(F)F)C(F)(F)F)cc3-c3cc4ccccc4[nH]3)CC2)cn1 | < 14 µL/min/mg | 7.57 | 146 µL/min/mg |
| Nc1ccc(S(=O)(=O)N2CCN(c3ncc(C(O)(C(F)(F)F)C(F)(F)F)cc3-c3cc4ccccc4s3)CC2)cn1 | < 14 µL/min/mg | 7.32 | 315 µL/min/mg |
